Here are results for one compound from patent US10617662B2, “Autophagy activation-induced compound for improving skin inflammation for aging” (INCOSPHARM CORPORATION, priority 2017, dated 2020).

One series deals with Foxp3 (forkhead box P3). Briefly: Expression of psoriasis-related transcription factor Foxp3 in induced inflammatory condition. The series is classed as cell-based, human. Conditions: IL-17A/TNFα- or IL-17A/IFNγ-induced inflammatory condition. As for the experimental part: [The source words this procedure for another target and says it was used here with some conditions changed.] (§1) A psoriasis-related genes were selected from the cDNA array result in which Compound 8 of the present invention was treated in HaCaT cells. In order to analyze whether Compound 8 has an effect on psoriasis alleviation, RT-PCR analysis for IL-36′ (interleukin 36 gamma), KLK7 (Kallikrein-related peptidase 7), OASL (2′-5′-Oligoadenylate Synthetase Like) and ALOX12B (Arachidonate 12-lipoxygenase, 12R type) which are very closely related to psoriasis was carried out. Further, KRT16 (Keratin 16), KRT6 (Keratin 6) and KRT1 (Keratin 1), known as psoriasis-related proliferation, differentiation markers were confirmed by a western blot analysis. As the specific experimental method, HEKa cells (Human Epidermal keratinocytes, adult), human-derived epidermal keratinocytes were seeded on a 24 well plate at a density of 1×10^5 cells, and cultured in an EpiLife medium (1× Human keratinocyte Growth supplement, 1× antibiotics) in an incubator under 37° C. and 5% CO2 for 24 hours. […]

A further series deals with KRT1 (Keratin 1). Briefly: Western blot of differentiation marker KRT1. Type of series: cell-based, human. Conditions: FIG. 4. As for the experimental part: as §1
(Immunoblotting shows a protein as a band on a membrane.)

The subject of series [1] is Tbet (T-box transcription factor). Kind of series: Expression of psoriasis-related transcription factor Tbet in induced inflammatory condition. Conditions: IL-17A/TNFα- or IL-17A/IFNγ-induced inflammatory condition. Type of series: cell-based, human. As for the experimental part: [The source words this procedure for another target and says it was used here with some conditions changed.] as §1

The test system of the next series is KRT16 (Keratin 16). Briefly: Western blot of proliferative marker KRT16. The series is classed as cell-based, human. Conditions: FIG. 4. As for the experimental part:
as §1

Series [2] relates to OASL (2′-5′-Oligoadenylate Synthetase Like). Kind of series: RT-PCR of psoriasis-related gene OASL. Type of series: cell-based, human. Conditions: HEKa cells, 20 uM, FIGS. 2 and 3. As for the experimental part: as §1
Another series relates to IL-6 (interleukin 6). Kind of series: ELISA for IL-6 in HEKa cells under inflammatory condition. Type of series: cell-based, human. Conditions: TNF-α/IFN-γ or IL-17A/IL-22 induced inflammatory condition, 10·M, FIGS. 5 to 7. As for the experimental part:
(§2) In order to analyze whether treatment of Compound 8 has an atopy alleviation effect, ELISA (enzyme-linked immunosorbent assay) for IL-6 (interleukin 6) and IL-8 (interleukin 8) which are very closely related to atopic inflammation and psoriasis was performed.
(§3) As the specific experimental method, HEKa cells (Human Epidermal keratinocytes, adult), human-derived epidermal keratinocytes were seeded on a 24 well plate at a density of 1×10^5 cells, and cultured in an EpiLife medium (1× Human keratinocyte Growth supplement, 1× antibiotics) in an incubator under 37° C. and 5% CO2 for 24 hours.
(§4) After culturing, while an inflammatory condition was induced by treatment with either TNF-α (Tumor necrosis factor-α)/IFN-γ (interferon-γ) or IL-17A (interleukin-17A)/IL-22 (interleukin-22) in each well, further treatment was performed with Compound 8 of the present invention at a concentration of 10·M, and then the cells were incubated for a certain period. After completing culturing, media were collected, and then ELISA for each IL-6 and IL-8 was carried out.
Background: An ELISA detects its analyte on a solid surface through an enzyme-linked reagent.

The subject of the next series is IL-20 (interleukin-20). Briefly: Cytokine gene expression, IL-20, TNFα/IFN-γ induced inflammatory condition. Conditions: FIG. 8. Type of series: cell-based, human.
Series [3] concerns psoriasis animal model induced by imiquimod 5% cream. Kind of series: Psoriasis animal model, ear thickness. The conditions noted are these: ears treated together with imiquimod; digital caliper; FIG. 18. Type of series: in vivo, BALB/c mice. As for the experimental part: (§5) In order to confirm the psoriasis treatment effect by Compound 8 of the present invention, dorsal hair of 8-week-old BALB/c mice (female) was removed using hair removal cream (Veet®, Oxy Reckitt Benckiser, Cedex, France), and subsequently imiquimod 5% cream (Aldara®; 3M Pharmaceuticals, UK; 62.5 mg) was applied on the back and both ears of the mice twice in the morning and in the afternoon (Sensitization; Day 0). Then, after a barrier recovery period of 2 days, imiquimod 5% cream (62.5 mg/day) was applied repeatedly for 7 days (Induction stage; Day 2 -Day 8), thereby inducing the psoriasis animal model.
There was no treatment on the left ear of the untreated control group, and the right ear was treated with cream not containing imiquimod and ethanol. The left ear of the experimental groups was treated only with imiquimod and ethanol, whereas the right ear of the experimental groups was treated with either Compound 8 or Compound 8 cream of the present invention together with imiquimod, and such method is specifically shown in FIG. 12.
When the animals were slaughtered, the thickness of the central part of both ears was measured using a digital caliper (Digital caliper, Marathon Inc. Belleville, ON, Canada).

A further series has as its system IL-8 (interleukin 8). Kind of series: ELISA for IL-8 in HEKa cells under inflammatory condition. Type of series: cell-based, human. Conditions: TNF-α/IFN-γ or IL-17A/IL-22 induced inflammatory condition, 10·M, FIGS. 5 to 7. As for the experimental part:
as §2, §3, §4

The test system of series [4] is CXCL2 (Chemokine (C-X-C motif) ligand 2). Kind of series: Cytokine gene expression, CXCL2, TNFα/IFN-γ induced inflammatory condition. The series is classed as cell-based, human. Conditions: FIG. 8.
Series [5] is described as follows: Psoriasis animal model, weight change. The series is classed as in vivo, BALB/c mice. Conditions: topical treatment, FIG. 16. As for the experimental part:
as §5
After inducing the psoriasis animal model, Compound 8 of the present invention dissolved in ethanol (0.5%) and cream containing Compound 8 of the present invention (The same composition as that of the cosmetic composition of Example 14 except that it contained 0.5% by weight of Compound 8) were applied on the back once in the morning for 5 days (Treatment Stage; Day 8-Day 12). An untreated control group and a disease control group (vehicle) were treated with cream not containing Compound 8 of the present invention (cosmetic composition of Comparative Example 2) and ethanol, and during the treatment period, imiquimod 5% cream was applied thereon every other day, thereby maintaining psoriasis.

Series [6] concerns psoriasis animal model induced by imiquimod 5% cream. Briefly: Psoriasis animal model (imiquimod), clinical findings: erythema. The series is classed as in vivo, BALB/c mice. As for the experimental part: as §5
After inducing the psoriasis animal model, Compound 8 of the present invention dissolved in ethanol (0.5%) and cream containing Compound 8 of the present invention (The same composition as that of the cosmetic composition of Example 14 […]; […]). An untreated control group and a disease control group (vehicle) were treated with cream not containing Compound 8 of the present invention (cosmetic composition of Comparative Example 2) and ethanol, and during the treatment period, imiquimod 5% cream was applied thereon every other day, thereby maintaining psoriasis.

On to `CCCCCCCCCCCCCCCC(=O)NCCCC[C@H](NC(=O)[C@H](CCCCN(CC(=O)O)CC(=O)O)N(CC(=O)O)CC(=O)O)C(=O)O` [Compound 8], for which the “expression level of Foxp3” value in the series on Foxp3 (forkhead box P3) is listed as “reduced”. Besides, the “KRT1 (differentiation marker) level” value in the series with KRT1 (Keratin 1) is “increased”. Further, the “expression level of Tbet” value in [1] is on record as “reduced”. Moreover, the “KRT16 (proliferative marker) level” value in the series with KRT16 (Keratin 16) is on record as “reduced”. Further, in series [2], the “expression level of OASL gene” value is “significantly decreased”. The “secretion of IL-6” value in the series with IL-6 (interleukin 6) is listed as “significantly reduced”. In addition, in the series with IL-20 (interleukin-20), the “expression level of IL-20” value is on record as “reduced”. Besides, the “thickness of the right (treated) ear compared with the left ear treated with 5% imiquimod and ethanol” value in [3] is on record as “significant thickness reduction”. Moreover, in the series with IL-8 (interleukin 8), the “secretion of IL-8” value is listed as “significantly reduced”. Moreover, the “expression level of CXCL2” value in [4] was “reduced”. Besides, the “weight change after treatment” value in [5] is given as “almost similar to those of the control group”. Also, in series [6] (day 14 after treatment, FIG. 14), the “erythema on day 14, reduction level” value is on record as “very remarkable”. In addition, in series [6] (topical on back, 0.5% in ethanol or 0.5% cream, treatment for 6 days, FIG. 13), the “erythema increased by imiquimod” value is listed as “significantly reduced”.
